US6123964A, “Wet granulation formulation of a growth hormone secretagogue” (priority 1998, dated 2000)
Counter-ions that a name gives are not always drawn.

Assays:
[1] = Hygroscopicity of wet crystals; type: physicochemical; settings: wet crystals during filtration
Method: The volume of the solution of 15 from the previous step was adjusted to 60 L with ethyl acetate and EtOH (4.8 L) was added. The MsOH (316 mL) was added in 3 L of EtOAc at 45° C. To the deep red homogeneous solution was added 496 g of the title compound Form I seed (10% seed based on the weight of the free amine was employed). The temperature rose to ca. 48° C. and the reaction was aged at 52° C. for 1.5 hours. Analysis indicated complete conversion to the title compound (Form I). (At less than 10% seed longer age (>3 hours) was required). The slurry was allowed to cool to 20° C. overnight and was filtered in a centrifuge under N2. The cake was washed with 20 L of 8% EtOH in EtOAc. […] The batch was dried at 35° C. under vacuum to afford 2.7Kg (56% overall yield) of the title compound (Form I) (99.9 A % purity; <0.1% enantiomer).

[2] = Flow properties of bulk drug; type: physicochemical; settings: as a bulk drug
[3] = Stability of the compound in standard pharmaceutical formulations; type: physicochemical
growth hormone = experiment: Growth hormone secretagogue assay described by Smith, et al., Science, 260, 1640-1643 (1993); type: cell-based; settings: assay of Smith et al., Science 1993
Source text: Such a result is indicative of the activity of the formulation of the present invention as a growth hormone secretagogue.

physchem = type: physicochemical; settings: solid state, initial compound present
Method: As a mimic of the tablet formulation process, a concentrated solution of N-[1(R)-[(1,2-dihydro-1-methanesulfonylspiro[3H-indole-3,4'-piperdin]-1'-yl)carbonyl]-2-(phenylmethyloxy)ethyl]-2-amino-2-methylpropanamide methanesulfonate (118 mg) in 120 μL 25% aqueous ethanol (980 mg/ml) was evaporated at 40° C. to give a solid. The lack of crystallinity was confirmed by X-ray analysis.
After 12 weeks at 40° C., 100% of the initial compound was present; after 12 weeks at 60° C., 99.7% of the initial compound was present; after 12 weeks at 80° C., 97.8% of the initial compound was present.

With CC(C)(N)C(=O)N[C@H](COCc1ccccc1)C(=O)N1CCC2(CC1)CN(S(C)(=O)=O)c1ccccc12 [Compound 16, N-[1(R)-[(1,2-Dihydro-1-methanesulfonylspiro[3H-indole-3,4'-piperdin]-1'-yl)carbonyl]-2-(phenylmethyloxy)ethyl]-2-amino-2-methylpropanamide mesylate] the hygroscopicity [1] was “very hygroscopic”.

In the case of CC(C)(N)C(=O)N[C@H](COCc1ccccc1)C(=O)N1CCC2(CC1)CN(S(C)(=O)=O)c1ccccc12 [active ingredient, N-[1(R)-[(1,2-dihydro-1-methane-sulfonyl-spiro[3H-indole-3,4'-piperdin]-1'-yl)carbonyl)-2-(phenyl-methyl-oxy)ethyl]-2-amino-2-methyl-propanamide], the flow properties [2] is reported as “poor flow properties”, the “stability in standard pharmaceutical formulations” value [3] is reported as “relatively unstable” and the “activity as a growth hormone secretagogue” value (growth hormone) is reported as “had activity as a growth hormone secretagogue”.

With CC(C)(N)C(=O)N[C@H](COCc1ccccc1)C(=O)N1CCC2(CC1)CN(S(C)(=O)=O)c1ccccc12 [amorphous form, N-[1(R)-[(1,2-dihydro-1-methanesulfonylspiro[3H-indole-3,4'-piperdin]-1'-yl)carbonyl]-2-(phenylmethyloxy)ethyl]-2-amino-2-methylpropanamide methanesulfonate] the remaining at 2016 h (physchem) was 100%.
